Reference: ChEMBL document CHEMBL2203256, “Design and evaluation of azaindole-substituted N-hydroxypyridones as glyoxalase I inhibitors” (Bioorg Med Chem Lett, 2012)
pIC50: −log10 of the molar value.

Assays:
[1] = Half life in mouse serum at […]; assay type: ADME, cell-free
Liver microsomes [2] = assay: Clearance in human liver microsomes assessed per mg of protein at 1 uM after 30 mins in absence of NADPH; assay type: ADME, Microsome; conditions: 0.5 h
[3] = Half life in human serum at […]; assay type: ADME, cell-free
Liver microsomes [4] = assay: Clearance in human liver microsomes assessed per mg of protein at 1 uM after 30 mins in presence of NADPH; assay type: ADME, Microsome; conditions: 0.5 h
Liver [5] = assay: Clearance in mouse liver microsomes assessed per mg of protein at 1 uM after 30 mins in presence of NADPH; assay type: ADME, Microsome; conditions: 0.5 h
Lactoylglutathione lyase = Lactoylglutathione lyase (Homo sapiens, UniProt Q04760); assay: Inhibition of human recombinant GLO1 expressed in Escherichia coli BL21 assessed as decrease in reduced glutathione level after 1 hr by Ellman's method
Lactoylglutathione lyase, sequence (Q04760 whole entry): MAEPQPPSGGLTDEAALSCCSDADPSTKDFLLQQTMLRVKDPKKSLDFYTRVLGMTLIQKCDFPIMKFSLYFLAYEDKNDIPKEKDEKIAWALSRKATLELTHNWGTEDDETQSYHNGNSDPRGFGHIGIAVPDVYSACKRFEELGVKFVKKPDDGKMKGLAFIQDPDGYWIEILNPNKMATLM

Liver [6] = assay: Clearance in mouse liver microsomes assessed per mg of protein at 1 uM after 30 mins in absence of NADPH; assay type: ADME, Microsome; conditions: 0.5 h

| Structure (SMILES) | pIC50 (Lactoylglutathione lyase) | also measured |
| --- | --- | --- |
| O=c1cc(-c2ccccc2)cc(-c2ccccc2)n1O | 5.92 | half-life [1]: 440 min; CLint (Liver microsomes [2]): 6.6 µL/min/mg; half-life [3]: 2900 min; CLint (Liver microsomes [4]): 16 µL/min/mg; CLint (Liver [5]): 28 µL/min/mg; CLint (Liver [6]): 6.8 µL/min/mg |
| CCCCCn1ccc2cc(-c3cc(-c4ccccc4)cc(=O)n3O)cnc21 | 6.29 |  |
| O=c1cc(-c2cccnc2)cc(-c2ccccc2)n1O | 5.08 |  |
| O=c1cc(-c2ccccc2)cc(-c2cnc3[nH]ccc3c2)n1O | 6.55 |  |
| O=c1cc(-c2ccccc2)cc(-c2ccc3[nH]ccc3c2)n1O | 6.60 |  |
| NC(=O)c1cccc(Cn2ccc3cc(-c4cc(-c5ccccc5)cc(=O)n4O)cnc32)c1 | 7.40 |  |
| NC(=O)c1cccc(Cn2ccc3cc(-c4cc(-c5ccccc5)cc(=O)n4O)ccc32)c1 | 6.32 |  |

Continued, in another order:

| pIC50 (Lactoylglutathione lyase) | Structure (SMILES) | also measured |
| --- | --- | --- |
| 6.59 | COCCn1ccc2cc(-c3cc(-c4ccccc4)cc(=O)n3O)ccc21 |  |
| 6.52 | COCCCn1ccc2cc(-c3cc(-c4ccccc4)cc(=O)n3O)ccc21 |  |
| 6.52 | CCCCn1ccc2cc(-c3cc(-c4ccccc4)cc(=O)n3O)cnc21 |  |
| 5.82 | O=c1cc(-c2ccsc2)cc(-c2ccccc2)n1O |  |
| 5.09 | O=c1cc(-c2ccc(C(F)(F)F)cc2)cc(-c2ccccc2)n1O |  |
| 5.08 | O=c1cc(-c2ccc(-c3ccccc3)cc2)cc(-c2ccccc2)n1O |  |
| < 5.00 | CCC#Cc1cc(-c2ccccc2)n(O)c(=O)c1 |  |
| < 5.00 | CCCCc1cc(-c2ccccc2)n(O)c(=O)c1 |  |
| 7.85 | COCCn1ccc2cc(-c3cc(-c4ccccc4)cc(=O)n3O)cnc21 |  |
